These results are taken from PubChem BioAssay AID222 (DTP/NCI, 2004).

Inconclusive results and toxic doses are left out.

The subject of the assay is C57BL/6 mice, intracerebral ependymoblastoma, median survival T/C. As to the kind of experiment: NCI In Vivo Anticancer Drug Screen. Data for tumor model Ependymoblastoma (intracerebral) in C57BL/6 mice. The settings on record: endpoint: median survival time, higher = longer survival. The method, then: The antitumor activity of compounds was measured in mice bearing transplantable tumors. Survival or tumor size were measured and the results are expressed as the measurement made in the treated group (T) divided by the measurement made in the vehicle treated control group (C). The tumor model used in this assay is Ependymoblastoma (intracerebral) in C57BL/6 mice

Consider `CCCN(C)C(=O)N(CCCl)N=O`, for which the T/C runs as follows: (dose: 39.0 mg/kg/injection, schedule: Q01DX001 (ip), vehicle: other) 182 % of control; (dose: 62.5 mg/kg/injection, schedule: Q01DX001 (ip), vehicle: other) 309 % of control; (dose: 78.0 mg/kg/injection, schedule: Q01DX001 (ip), vehicle: other) 227 % of control; (dose: 125.0 mg/kg/injection, schedule: Q01DX001 (ip), vehicle: other) 309 % of control; (dose: 156.0 mg/kg/injection, schedule: Q01DX001 (ip), vehicle: other) 308 % of control.
Regarding `CCC1=C[C@H]2CN(CCc3c([nH]c4ccccc34)[C@@](C(=O)OC)(c3cc4c(cc3OC)N(C)[C@H]3[C@@](O)(C(=O)OC)[C@H](OC(C)=O)[C@]5(CC)C=CCN6CC[C@]43[C@@H]65)C2)C1`, the T/C was 100 % of control (dose: 0.05 mg/kg/injection, schedule: Q01DX005 (ip), vehicle: saline); 108 % of control (dose: 0.1 mg/kg/injection, schedule: Q01DX005 (ip), vehicle: saline); 110 % of control (dose: 0.2 mg/kg/injection, schedule: Q01DX005 (ip), vehicle: saline); 103 % of control (dose: 0.4 mg/kg/injection, schedule: Q01DX005 (ip), vehicle: saline); 102 % of control (dose: 0.8 mg/kg/injection, schedule: Q01DX005 (ip), vehicle: saline); 105 % of control (dose: 1.6 mg/kg/injection, schedule: Q01DX005 (ip), vehicle: saline).
